Molecules are shown by their SMILES.

The target in one experiment is TERRA. Briefly: FP assay, compound binding to 5′ fluorescein-labeled TERRA. Particulars: 10 nM fluorescein-labeled probe, 3 independent experiments. On the procedure:
(§1) All the nucleic acids, peptides and chemicals were dissolved in buffer containing 20 mM HEPES pH7.5, 150 mM salt (KCl, NaCl, LiCl) at the stock concentration of 1 mM. For peptide and nucleic acid interactions, 25μL of each nucleic acids with a sequential twofold dilutions starting from 50 μM was added into each well of 96-well plate followed by adding 25μL of 10 nM FITC labeled TRF2 peptide. For compounds and nucleic acid interactions, 20μL of each compounds with a sequential twofold dilutions starting from 50 μM were added into each well of 96-well plate followed by adding 5μL of 20 ng/mL tRNA and 25μL of 10 nM FAM labeled nucleic acids. For inhibition assay, 5μL FITC labeled TRF2 GAR peptide (10 nM final concentration) and 10 μL oligos (5 μM final concentration) were mixed, followed by adding 5μL of each compound with a sequential twofold dilutions starting from 50 μM into each well of 384-well plate. All components were mixed thoroughly, and the plate was incubated at room temperature for 1 h before placing in an Envision Plate Reader for reading at 495/520 nm. All data curves were fitted using Prism 8.0.

A further experiment concerns the target TERRA and TRF2 complex. The experiment in a line: FP inhibition assay, TRF2 GAR binding to TERRA. Particulars: for IC50: FP, 10 nM peptide, 5 μM oligo; for Selectivity Ratio IC50 (Tel DNA/TERRA): ratio of FP IC50 values. On the procedure: as §1
Experiment [1] concerns TeloDNA (unlabelled) (DNA, G4) TTAGGGTTAGGGTTAGGGTTAGGG
The experiment in a line: fluorescence polarization, displacement of TRF2 GAR peptide. The following applies: 150 mM KCl, NaCl or LiCl (salt not specified); 20 mM HEPES; 20 mM HEPES pH 7.5, room temperature; FITC-TRF2 GAR peptide 10 nM displaced; 5 μM oligo. For orientation: In fluorescence polarisation assays a small probe gives low polarisation when free and higher when bound to something large.

Experiment [2] deals with TRF2 interaction with TERRA. Briefly: RNA-ChIP assay of TRF2-TERRA interaction in LOX cells. Format: cell-based. Particulars: Homo sapiens, 24 h, read-out: inhibition of TRF2 interaction with TERRA relative to PP control. On the procedure:
Mei et al, 2020 TERRA Requires TRF2 GAR Domain […]
blot procedures. Northern blot was performed as previously described with some modifications […]
2. Briefly, 6 µg RNA was denatured in NorthernMax formaldehyde loading dye (Ambion) for 15 […]
min at 65 °C and separated by 1.2% agarose formamide gel in 1X Mops buffer (Ambion) at […]
5V/cm for 2-3 hrs. RNA samples were transferred to GeneScreen Plus blotting membranes […]
(Perkin-Elmer) with 10X SSC and UV cross-linked onto membranes at 125 mJ in UV […]
Stratalinker 2400 (Stratagene). The hybridization was performed using a 32P-labeled TERRA […]
probe in Church buffer (0.5 N Na-phosphate, pH 7.2, 7% SDS, 1 mM EDTA, 1% BSA) for […]
overnight at 50 °C. The blot was washed twice in 0.2 N Na-phosphate, 2% SDS, and 1 mM […]
EDTA at room temperature and once in 0.1 N Na-phosphate, 2% SDS, and 1 mM EDTA at […]
50 °C. Images were collected by phosphor- imager (Amersham Biosciences), and were […]
visualized with a Typhoon 9410 Imager (GE Healthcare) and quantified with ImageQuant TL […]
Genomic DNA was isolated from cells using a genomic DNA purification kit (Promega) and digested with AluI and MboI. Digested genomic DNA was purified by phenol/choloroform extraction and quantified using a Qubit 4 Fluorometer (Thermal Scientific). […] The DNA was transferred to GeneScreen Plus blotting membranes (Perkin-Elmer) and analyzed by Southern blot. […]

By EC50 is commonly meant the concentration at which the effect is half-maximal. Higher therefore signals lower potency in that assay. One may read the IC50 as the concentration that inhibits the measured activity by half. As a reminder, the inhibition is how much of the control response was suppressed. With `CN(C)c1ccc(Nc2c3ccc(NC(=O)CCN4CCCC4)cc3nc3cc(NC(=O)CCN4CCCC4)ccc23)cc1` [BRACO-19], the EC50 on TERRA is 7400 nM. Moreover, on TERRA and TRF2 complex, the IC50 came out at 240 nM and the “Selectivity Ratio IC50 (Tel DNA/TERRA)” value was found to be 0.17. Also, in experiment [1], the IC50 amounted to 40 nM. Also, the inhibition at 2 µM in experiment [2] was about 50%.

Consider `CCc1c(C)c2cc3nc(cc4nc(cc5c(CC)c(C)c(cc1[nH]2)n5C)C(C)=C4CCC(=O)O)C(CCC(=O)O)=C3C` [NMM, N-methyl mesoporphyrin IX], for which, at TERRA, a half-maximal response (EC50) required 680 nM. In addition, on TERRA and TRF2 complex, the IC50 turned out to be 420 nM and the “Selectivity Ratio IC50 (Tel DNA/TERRA)” value came out at 2.38. For the same compound, the IC50 in experiment [1] came to 1000 nM. In addition, the inhibition at 2 µM in experiment [2] was about 50%.

For the origin of these results see publication PMC7876106 (Scientific Reports, 2021).
